Test results published in patent publication US20230002357A1, “7-PYRIMIDINE-2-YL-OXY-INDAZOLE DERIVATIVES AND THEIR USE AS HERBICIDES” (SYNGENTA CROP PROTECTION AG, priority 2019, published 2023).

Legend:
Assay type in all cases: in vivo
Conditions in all cases: 250 g/ha, evaluated after 13 days
[1] = test system: Amaranthus retoflexus (AMARE); experiment: Post-emergence Test, glasshouse, AMARE
Outline: (§1)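 Pots of standard soil were sown and sprayed 1 day (pre-emergence) or 8 days (post-emergence) after sowing with compound in acetone/water (50:50) containing 0.5% Tween 20, at 250 g/ha unless otherwise stated. Glasshouse conditions were 24/16 °C day/night, 14 h light, 65% humidity. Percentage damage was assessed after 13 days and scored 1–5 (5=81-100%, 1=0-20%).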

IPOHE [2] = experiment: Pre-emergence Test, glasshouse, IPOHE
Outline: as §1

[3] = test system: Echinochloa crus-galli (ECHCG); experiment: Post-emergence Test, glasshouse, ECHCG
Outline: as §1

Setaria faberi (SETFA) [4] = experiment: Post-emergence Test, glasshouse, SETFA
Outline: as §1

IPOHE [5] = experiment: Post-emergence Test, glasshouse, IPOHE
Outline: as §1

ABUTH [6] = experiment: Pre-emergence Test, glasshouse, ABUTH
Outline: as §1

[7] = test system: Amaranthus retoflexus (AMARE); experiment: Pre-emergence Test, glasshouse, AMARE
Outline: as §1

ABUTH [8] = experiment: Post-emergence Test, glasshouse, ABUTH
Outline: as §1

[9] = test system: Echinochloa crus-galli (ECHCG); experiment: Pre-emergence Test, glasshouse, ECHCG
Outline: as §1

Setaria faberi (SETFA) [10] = experiment: Pre-emergence Test, glasshouse, SETFA
Outline: as §1

Structure (SMILES)	percentage damage caused to the plant, five-point scale, AMARE [1]	percentage damage caused to the plant, five-point scale, IPOHE (IPOHE [2])	percentage damage caused to the plant, five-point scale, ECHCG [3]	percentage damage caused to the plant, five-point scale, SETFA (Setaria faberi (SETFA) [4])	percentage damage caused to the plant, five-point scale, IPOHE (IPOHE [5])	percentage damage caused to the plant, five-point scale, ABUTH (ABUTH [6])	percentage damage caused to the plant, five-point scale, AMARE [7]	percentage damage caused to the plant, five-point scale, ABUTH (ABUTH [8])	percentage damage caused to the plant, five-point scale, ECHCG [9]	percentage damage caused to the plant, five-point scale, SETFA (Setaria faberi (SETFA) [10])
Cc1ccc2c(Cl)nn(CCCC(F)(F)F)c2c1Oc1ncc(Cl)cn1 [Compound 1.043, 3-chloro-7-(5-chloropyrimidin-2-yl)oxy-6-methyl-1-(4,4,4-trifluorobutyl)indazole]	4 (4=61-80%)	1 (1=0-20%)	3 (3=41-60%)	3 (3=41-60%)	4 (4=61-80%)	1 (1=0-20%)	5 (5=81-100%)	3 (3=41-60%)	3 (3=41-60%)	4 (4=61-80%)
Cc1ccc2cnn(CCCC(F)(F)F)c2c1Oc1ncc(Cl)cn1 [Compound 1.044]	1 (1=0-20%)	1 (1=0-20%)	1 (1=0-20%)	1 (1=0-20%)	1 (1=0-20%)	1 (1=0-20%)	2 (2=21-40%)	1 (1=0-20%)	3 (3=41-60%)	3 (3=41-60%)
N#Cc1ccc2cnn(CCCC(F)(F)F)c2c1Oc1ncc(Cl)cn1 [Compound 1.046]	2 (2=21-40%)	1 (1=0-20%)	1 (1=0-20%)	1 (1=0-20%)	1 (1=0-20%)	2 (2=21-40%)	1 (1=0-20%)	2 (2=21-40%)	1 (1=0-20%)	1 (1=0-20%)
Fc1cnc(Oc2cccc3c(Cl)nn(CCCC(F)(F)F)c23)nc1 [Compound 1.047]	5 (5=81-100%)	3 (3=41-60%)	5 (5=81-100%)	4 (4=61-80%)	5 (5=81-100%)	5 (5=81-100%)	5 (5=81-100%)	5 (5=81-100%)	5 (5=81-100%)	5 (5=81-100%)
COc1cnc(Oc2cccc3c(Cl)nn(CCCC(F)(F)F)c23)nc1 [Compound 1.048]	5 (5=81-100%)	1 (1=0-20%)	3 (3=41-60%)	3 (3=41-60%)	4 (4=61-80%)	2 (2=21-40%)	4 (4=61-80%)	4 (4=61-80%)	4 (4=61-80%)	5 (5=81-100%)
Cc1cnc(Oc2cccc3c(Cl)nn(CCCC(F)(F)F)c23)nc1 [Compound 1.049]	4 (4=61-80%)	1 (1=0-20%)	5 (5=81-100%)	4 (4=61-80%)	3 (3=41-60%)	3 (3=41-60%)	5 (5=81-100%)	5 (5=81-100%)	5 (5=81-100%)	5 (5=81-100%)
FC(F)(F)CCCn1nnc2cc(Cl)cc(Oc3ncc(Cl)cn3)c21 [Compound 1.050]	5 (5=81-100%)	1 (1=0-20%)	1 (1=0-20%)	1 (1=0-20%)	3 (3=41-60%)	1 (1=0-20%)	1 (1=0-20%)	2 (2=21-40%)	1 (1=0-20%)	1 (1=0-20%)
FC(F)OCCn1nc(Cl)c2cccc(Oc3ncc(Cl)cn3)c21 [Compound 1.051]	5 (5=81-100%)	2 (2=21-40%)	4 (4=61-80%)	4 (4=61-80%)	3 (3=41-60%)	3 (3=41-60%)	5 (5=81-100%)	4 (4=61-80%)	4 (4=61-80%)	5 (5=81-100%)
FC(F)(F)OCCn1nc(Cl)c2cccc(Oc3ncc(Cl)cn3)c21 [Compound 1.052]	5 (5=81-100%)	1 (1=0-20%)	4 (4=61-80%)	3 (3=41-60%)	3 (3=41-60%)	3 (3=41-60%)	5 (5=81-100%)	5 (5=81-100%)	4 (4=61-80%)	5 (5=81-100%)
C=CCCn1nc(Cl)c2cccc(Oc3ncc(Cl)cn3)c21 [Compound 1.054]	4 (4=61-80%)	1 (1=0-20%)	3 (3=41-60%)	2 (2=21-40%)	2 (2=21-40%)	1 (1=0-20%)	4 (4=61-80%)	4 (4=61-80%)	4 (4=61-80%)	5 (5=81-100%)
CCCCCn1nc(Cl)c2cccc(Oc3ncc(Cl)cn3)c21 [Compound 1.055]	4 (4=61-80%)	1 (1=0-20%)	3 (3=41-60%)	3 (3=41-60%)	2 (2=21-40%)	1 (1=0-20%)	4 (4=61-80%)	3 (3=41-60%)	4 (4=61-80%)	4 (4=61-80%)
